Measurements taken from the supplement of paper PMC10307832.

Legend:
Assay in all cases: relative viability (nuclei count vs DMSO), 5 days (fraction); higher = more cells survive
[1] = tested on: ChaGo-K-1
Method in brief: (§1)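 After 5 days of treatment, lung cancer cells in 1536-well plates were fixed and stained in a single step (final 0.05% Triton X-100, 1% formaldehyde, 1 ug/ml Hoechst) and their nuclei counted on 4× images. Treatment had been applied by pin tool the day after seeding as one drug alone or as a fixed anchor-drug dose with five library-drug doses (not always all listed) in √10 steps. Relative viability is the nuclei count of treated wells divided by that of vehicle wells, and values are medians of duplicate plates.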

[2] = tested on: EMC-BAC-2
Method in brief: as §1

[3] = tested on: EPLC-272H
Method in brief: as §1

[4] = tested on: HCC-78
Method in brief: as §1

[5] = tested on: HCC-827
Method in brief: as §1

[6] = tested on: LCLC-103H
Method in brief: as §1

[7] = tested on: LK-2
Method in brief: as §1

[8] = tested on: LOU-NH91
Method in brief: as §1

[9] = tested on: LU99A
Method in brief: as §1

[10] = tested on: LXF-289
Method in brief: as §1

[11] = tested on: NCI-H1563
Method in brief: as §1

[12] = tested on: NCI-H1666
Method in brief: as §1

[13] = tested on: NCI-H1975
Method in brief: as §1

[14] = tested on: NCI-H2085
Method in brief: as §1

[15] = tested on: NCI-H2126
Method in brief: as §1

[16] = tested on: NCI-H23
Method in brief: as §1

[17] = tested on: NCI-H2405
Method in brief: as §1

[18] = tested on: NCI-H3122
Method in brief: as §1

[19] = tested on: NCI-H322M
Method in brief: as §1

[20] = tested on: RERF-LC-KJ
Method in brief: as §1

[21] = tested on: SK-LU-1
Method in brief: as §1

[22] = tested on: SW 1573
Method in brief: as §1

What does the source list for Oc1nc(-c2ccc(C(F)(F)F)cc2)nc2c1CSCC2 [XAV939] + CS(=O)(=O)N1CCN(Cc2cc3nc(-c4cccc5[nH]ncc45)nc(N4CCOCC4)c3s2)CC1 [Pictilisib] (partner 1 µM)?
relative viability ([1]; first compound 0.08 µM): 0.629; relative viability ([1]; first compound 0.253 µM): 0.598; relative viability ([1]; first compound 0.8 µM): 0.729; relative viability ([1]; first compound 2.53 µM): 0.648; relative viability ([2]; first compound 0.08 µM): 0.56; relative viability ([2]; first compound 0.253 µM): 0.487; relative viability ([2]; first compound 0.8 µM): 0.416; relative viability ([2]; first compound 2.53 µM): 0.314; relative viability ([3]; first compound 0.08 µM): 0.347; relative viability ([3]; first compound 0.253 µM): 0.36; relative viability ([3]; first compound 0.8 µM): 0.302; relative viability ([3]; first compound 2.53 µM): 0.323; relative viability ([4]; first compound 0.08 µM): 0.216; relative viability ([4]; first compound 0.253 µM): 0.206; relative viability ([4]; first compound 0.8 µM): 0.161; relative viability ([4]; first compound 2.53 µM): 0.213; relative viability ([5]; first compound 0.08 µM): 1.05; relative viability ([5]; first compound 0.253 µM): 1.02; relative viability ([5]; first compound 0.8 µM): 1.24; relative viability ([5]; first compound 2.53 µM): 1.21; relative viability ([6]; first compound 0.08 µM): 0.724; relative viability ([6]; first compound 0.253 µM): 0.483; relative viability ([6]; first compound 0.8 µM): 0.601; relative viability ([6]; first compound 2.53 µM): 0.498; relative viability ([7]; first compound 0.08 µM): 0.565; relative viability ([7]; first compound 0.253 µM): 0.505; relative viability ([7]; first compound 0.8 µM): 0.643; relative viability ([7]; first compound 2.53 µM): 0.607; relative viability ([8]; first compound 0.08 µM): 0.498; relative viability ([8]; first compound 0.253 µM): 0.471; relative viability ([8]; first compound 0.8 µM): 0.509; relative viability ([8]; first compound 2.53 µM): 0.504; relative viability ([9]; first compound 0.08 µM): 0.336; relative viability ([9]; first compound 0.253 µM): 0.279; relative viability ([9]; first compound 0.8 µM): 0.305; relative viability ([9]; first compound 2.53 µM): 0.293; relative viability ([10]; first compound 0.08 µM): 0.872; relative viability ([10]; first compound 0.253 µM): 0.731; relative viability ([10]; first compound 0.8 µM): 0.764; relative viability ([10]; first compound 2.53 µM): 0.597; relative viability ([11]; first compound 0.08 µM): 0.645; relative viability ([11]; first compound 0.253 µM): 0.656; relative viability ([11]; first compound 0.8 µM): 0.605; relative viability ([11]; first compound 2.53 µM): 0.611; relative viability ([12]; first compound 0.08 µM): 0.378; relative viability ([12]; first compound 0.253 µM): 0.333; relative viability ([12]; first compound 0.8 µM): 0.279; relative viability ([12]; first compound 2.53 µM): 0.411; relative viability ([13]; first compound 0.08 µM): 0.258; relative viability ([13]; first compound 0.253 µM): 0.263; relative viability ([13]; first compound 0.8 µM): 0.248; relative viability ([13]; first compound 2.53 µM): 0.207; relative viability ([14]; first compound 0.08 µM): 0.388; relative viability ([14]; first compound 0.253 µM): 0.412; relative viability ([14]; first compound 0.8 µM): 0.445; relative viability ([14]; first compound 2.53 µM): 0.355; relative viability ([15]; first compound 0.08 µM): 0.477; relative viability ([15]; first compound 0.253 µM): 0.448; relative viability ([15]; first compound 0.8 µM): 0.473; relative viability ([15]; first compound 2.53 µM): 0.406; relative viability ([16]; first compound 0.08 µM): 0.46; relative viability ([16]; first compound 0.253 µM): 0.351; relative viability ([16]; first compound 0.8 µM): 0.33; relative viability ([16]; first compound 2.53 µM): 0.33; relative viability ([17]; first compound 0.08 µM): 0.502; relative viability ([17]; first compound 0.253 µM): 0.526; relative viability ([17]; first compound 0.8 µM): 0.416; relative viability ([17]; first compound 2.53 µM): 0.378; relative viability ([18]; first compound 0.08 µM): 0.667; relative viability ([18]; first compound 0.253 µM): 0.533; relative viability ([18]; first compound 0.8 µM): 0.568; relative viability ([18]; first compound 2.53 µM): 0.381; relative viability ([19]; first compound 0.08 µM): 0.572; relative viability ([19]; first compound 0.253 µM): 0.491; relative viability ([19]; first compound 0.8 µM): 0.541; relative viability ([19]; first compound 2.53 µM): 0.439; relative viability ([20]; first compound 0.08 µM): 0.61; relative viability ([20]; first compound 0.253 µM): 0.457; relative viability ([20]; first compound 0.8 µM): 0.419; relative viability ([20]; first compound 2.53 µM): 0.366; relative viability ([21]; first compound 0.08 µM): 0.631; relative viability ([21]; first compound 0.253 µM): 0.504; relative viability ([21]; first compound 0.8 µM): 0.646; relative viability ([21]; first compound 2.53 µM): 0.565; relative viability ([22]; first compound 0.08 µM): 0.542; relative viability ([22]; first compound 0.253 µM): 0.403; relative viability ([22]; first compound 0.8 µM): 0.357; relative viability ([22]; first compound 2.53 µM): 0.392
